One data set deals with rats. Nature of the data set: Toxicity test on coumaperine, oral administration. Format: in vivo. To be noted: 2000 mg/kg of body weight. The procedure: A toxicity test was conducted on the coumaperine of the present invention.
Coumaperine was orally administered at 2000 mg/kg of body weight to rats. […] Thus, the coumaperine was confirmed to have no or exceedingly low toxicity.

In data set [1] the target is T1, mouse PPARγ ligand-binding site (GAL4 chimeric protein, pM-mPPARγ) (Mus musculus, UniProt P37238).
T1 construct: expressed in transfected cells; host or cells: CV-1 cells (African green monkey kidney)
T1 sequence (P37238 174-475 isoform P37238-2): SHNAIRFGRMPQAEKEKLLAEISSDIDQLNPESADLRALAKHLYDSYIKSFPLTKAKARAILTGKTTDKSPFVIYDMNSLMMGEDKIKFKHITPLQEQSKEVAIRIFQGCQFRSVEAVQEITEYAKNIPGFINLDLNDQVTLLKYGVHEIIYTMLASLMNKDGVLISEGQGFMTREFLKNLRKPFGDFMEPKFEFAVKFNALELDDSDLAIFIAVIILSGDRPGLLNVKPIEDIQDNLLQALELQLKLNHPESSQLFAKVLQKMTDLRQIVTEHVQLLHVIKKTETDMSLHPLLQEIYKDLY
Nature of the data set: PPARγ ligand activity (GAL4-PPARγ chimera luciferase reporter assay in CV-1 cells). Format: cell-based. To be noted: for PPARγ ligand activity: specific activity relative to untreated control (DMSO = 1.00), CV-1 cells, 24 h. The procedure: CV-1 cells (cultured cells derived from male African green monkey kidney) were seeded at 6×10^3 cells/well into a 96-well culture plate and cultured at 37° C. for 24 hours under 5% CO2 conditions. The medium used was DMEM (Dulbecco's Modified Eagle Medium; GIBCO) containing 10% FBS (fetal bovine serum), 10 ml/L penicillin/streptomycin solution (5000 IU/ml and 5000 μg/ml, respectively; GIBCO), and 37 mg/L ascorbic acid (Wako Pure Chemical Industries, Ltd.). The cells were washed with OPTI-MEM (GIBCO) and then transfected with pM-mPPARγ and 4×UASg-luc by use of Lipofectamine plus (GIBCO). […] The 4×UASg-luc is a reporter plasmid in which four copies of the upstream activating sequence of GAL4 (UASg) are incorporated upstream of a luciferase gene. Approximately 24 hours after transfection, the medium was replaced with a sample-containing medium (n=4), followed by culture for additional 24 hours. The sample dissolved in dimethyl sulfoxide (DMSO) or DMSO used as an untreated control was added at 1/1000 of the volume to the medium. The cells were washed with Ca- and Mg-containing phosphate-buffered saline (PBS+). Then, Luclite (Packard) was added thereto, and the luminescence intensity of luciferase was measured with a TopCount microplate scintillation/luminescence counter (Packard).
pM (plasmid from which PPARγ ligand-binding site gene was removed) was used as a control group instead of the pM-mPPARγ and subjected to measurement in the same way as for the measurement group. The ratio (measurement group/control group) of the average luminescence intensity values (n=4) between the measurement and control groups was calculated for each sample. Specific activity relative to the untreated control was used as the PPARγ ligand activity of the sample.
Background: A reporter such as luciferase makes a cellular process visible.

From patent US20080132544A1, “Peroxisome Proliferator-Activated Receptor Ligand” (KANEKA CORPORATION, priority 2004, published 2008) come the findings set out here.

Each structure is given as a SMILES string.

`O=C(/C=C/C=C/c1ccc(O)cc1)N1CCCCC1` [Coumaperine, N-5-(4-hydroxyphenyl)-2E,4E-pentadienoyl piperidine]: the death cases result in the data set with rats was “no death case was observed”. Further, the toxic conditions result with rats is listed as “toxic conditions were not particularly observed”. For the same compound, the “PPARγ ligand activity, concentration dependence (in words)” value in data set [1] (0.5 to 50 μg/ml, Table 1) is on record as “concentration-dependent PPARγ ligand activity”. Moreover, the PPARγ ligand activity in data set [1] (concentration added 0.5 μg/ml) came out at 1.05; in data set [1] (concentration added 1 μg/ml), 1.07; in data set [1] (concentration added 2 μg/ml) it was 1.24; in data set [1] (concentration added 5 μg/ml) it was 1.78; in data set [1] (concentration added 10 μg/ml), 2.07; in data set [1] (concentration added 20 μg/ml), 2.53. Moreover, the results for the PPARγ ligand activity in data set [1] (concentration added 30 μg/ml) and in data set [1] (concentration added 50 μg/ml) were 2.38 and 2.44, respectively.
